Assay results from paper PMC7408547, “Bivalent Inhibitor with Selectivity for Trimeric MMP-9 Amplifies Neutrophil Chemotaxis and Enables Functional Studies on MMP-9 Proteoforms” (Cells, 2020).
Values joined by “and” are separate entries in the source; they are usually repeats but may differ in a detail not shown here. Identical values can stand only once.

What was measured:
MMP-2 = biological target: T1, MMP-2 (Homo sapiens, UniProt P08253); test: MMP-2 OmniMMP peptide assay; type: biochemical; conditions: OmniMMP substrate peptide
T1 construct: purchased R & D systems; host or cells: CHO cells
T1 sequence (P08253 110-660): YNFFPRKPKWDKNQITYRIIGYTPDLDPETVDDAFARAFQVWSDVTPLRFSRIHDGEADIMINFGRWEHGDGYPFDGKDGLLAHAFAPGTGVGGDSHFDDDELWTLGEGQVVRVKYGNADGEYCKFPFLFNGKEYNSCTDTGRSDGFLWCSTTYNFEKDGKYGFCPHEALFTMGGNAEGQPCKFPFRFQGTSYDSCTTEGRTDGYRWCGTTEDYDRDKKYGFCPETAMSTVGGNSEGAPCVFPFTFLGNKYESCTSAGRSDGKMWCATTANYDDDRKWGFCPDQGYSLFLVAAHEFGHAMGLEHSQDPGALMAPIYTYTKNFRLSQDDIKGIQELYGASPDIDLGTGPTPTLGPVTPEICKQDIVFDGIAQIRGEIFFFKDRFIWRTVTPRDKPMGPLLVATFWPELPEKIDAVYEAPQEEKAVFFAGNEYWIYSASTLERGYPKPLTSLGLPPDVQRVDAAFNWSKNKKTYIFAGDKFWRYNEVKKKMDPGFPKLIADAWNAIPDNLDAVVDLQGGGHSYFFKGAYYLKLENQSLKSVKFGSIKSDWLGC
Protocol: Compounds 5 and 7 were synthesized as previously reported. Full-length human proMMP-9 was produced by recombinant expression in Sf9 insect cells and purified by gelatin-Sepharose chromatography as previously described. Stable full-length proMMP-9 monomers and trimers were separated by glycerol gradient ultracentrifugation as previously described. ProMMP-9 mixture and the separated monomers and trimers were activated by incubation with the catalytic domain of MMP-3 (cat. No. 444217, Merck Millipore, Darmstadt, Germany) as previously described. Activation of proMMP-9 was confirmed by a band shift of ±10 kDa, corresponding to the removal of the auto-inhibitory propeptide domain and by detection of gelatinolytic activity with a previously described gelatin degradation assay. […] ADAM17/TACE (Sf 21 (baculovirus)-derived, R & D systems, Minneapolis, MO, USA) was diluted and evaluated in 25 mM Tris, 2.5 μM ZnCl2, 0.005% Brij-35, pH 9.0. All stocks of the compounds were evaluated for the presence of endotoxin using the EndoZyme II assay (Hyglos bioMérieux, Bernried am Starnberger See, Germany). […]
To determine the inhibition of gelatinolytic activity, we used a previously optimized gelatin degradation assay. […] Proteolytic activity was determined by linear regression of the fluorescence curve and the percentage inhibition was calculated through comparison with the positive control (no inhibitors). […]

[1] = system: secretions of fMLF stimulated human granulocytes; test: Gelatinolysis in secretions of fMLF stimulated human granulocytes; type: biochemical; conditions: in the presence of 20 µM neutrophil elastase inhibitor; for inhibition of metalloproteinase-derived gelatinolytic signal: highest dose of 100 µM
Protocol: To determine the inhibition of gelatinolytic activity, we used a previously optimized gelatin degradation assay. Activated MMP-9, activated MMP-2, neutrophil elastase or supernatants of stimulated neutrophils, were incubated with different concentrations of inhibitors and incubated for 30 min at 37 °C. Next, dye-quenched gelatin (DQ™-gelatin, Invitrogen, Carlsbad, CA, USA) was added at a final concentration of 2.5 µg/mL and the increase in fluorescence over time was measured with the CLARIOstar microplate reader (BMG Labtech, Ortenberg, Germany). For other MMPs, the OmniMMP substrate peptide (Mca-PLGL-Dpa-AR-NH2, cat. no. BML-P126-0001, Enzo Life Sciences, Farmingdale, NY, USA) was used at a final concentration of 2.5 µg/mL. For ADAM17 the fluorogenic peptide Mca-PLAQAV-Dpa-RSSSR-NH2 (ES003, R & D systems, Minneapolis, MO, USA) and for neutrophil elastase the fluorogenic substrate MeOSuc-AAPV-AMC (cat. no. 324740, Merck Millipore, Darmstadt, Germany) were used. Proteolytic activity was determined by linear regression of the fluorescence curve and the percentage inhibition was calculated through comparison with the positive control (no inhibitors). When testing supernatants from human neutrophils, the assay was performed in the presence of 20 µM neutrophil elastase inhibitor (Elastase Inhibitor IV, Calbiochem, Darmstadt, Germany).
Neutrophils were isolated from fresh blood from healthy donors, via density gradient centrifugation as described. To obtain neutrophil degranulate, neutrophils were suspended in degranulation buffer (120 mM NaCl, 15 mM CaCl2, 20 mM Tris/HCl pH 7.5) at a concentration of 10^7 cells/mL and degranulation was induced by incubating neutrophils with N-formyl-methionyl-leucyl-phenylalanine (fMLF) (final concentration 0.5 µM) for 20 min at 37 °C as previously described. Next, the supernatant was collected by centrifugation. For fresh blood donations, all subjects gave written informed consent in accordance with the Declaration of Helsinki.

SMILES	IC50 (MMP-2)	inhibition of metalloproteinase-derived gelatinolytic signal [1]	inhibition of metalloproteinase-derived gelatinolytic signal, first inhibition plateau ([1]; around a concentration of 1 µM)
CC(C)[C@H](C(=O)O)N(CCNC(=O)c1ccccc1)S(=O)(=O)c1ccc(-c2ccccc2)cc1 [Compound 5]	1030 nM	approximately 30%	
CC(C)[C@H](C(=O)O)N(CCNC(=O)c1cccc(C(=O)NCCN([C@@H](C(=O)O)C(C)C)S(=O)(=O)c2ccc(-c3ccccc3)cc2)c1)S(=O)(=O)c1ccc(-c2ccccc2)cc1 [Compound 7]	~5 nM and 5 nM	almost complete inhibition	approximately 30%
